Values quoted from earlier work in article PMC8497432 (ChemMedChem, 2021).

Conditions: ref 6f

Q: For UNC3866, which cell permeability is on record?
A: approximately 5%
